In US5114925A, “Renin inhibitors containing the 2-[[(2R,3S)-3-amino-4-cyclohexyl-2-hydroxy-1-butyl]thio)alkanoyl moiety and the corresponding sulfoxide and sulfone derivatives” (Merck & Co., Inc., priority 1991, dated 1992):

target: T1, human renin (Homo sapiens, UniProt P00797); assay: plasma renin assay (radioimmunoassay of angiotensin-I released in human plasma); assay type: biochemical; details: human renin and human renin substrate in human plasma, 37° C., pH 6.9, angiotensin-I by radioimmunoassay; read-out: IC50 (the molar concentration required to cause 50% inhibition), renin inhibitory activity
T1 construct: added to human plasma (75 μl) containing EDTA; from tissue; host or cells: human plasma
T1 sequence (P00797 67-406): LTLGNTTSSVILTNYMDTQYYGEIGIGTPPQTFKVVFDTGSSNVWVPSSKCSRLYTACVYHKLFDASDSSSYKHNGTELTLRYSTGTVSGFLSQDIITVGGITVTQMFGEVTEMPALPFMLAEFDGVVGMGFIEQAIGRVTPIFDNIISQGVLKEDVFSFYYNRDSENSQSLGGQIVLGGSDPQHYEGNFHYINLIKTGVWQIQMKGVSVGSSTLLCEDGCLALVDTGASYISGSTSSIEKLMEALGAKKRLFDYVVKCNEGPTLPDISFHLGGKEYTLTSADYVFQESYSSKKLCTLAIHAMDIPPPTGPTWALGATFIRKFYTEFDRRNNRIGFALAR
Protocol: It is based on the measurement, by radiommunoassay, of Angiotensin-I released from human renin substrate by human renin in human plasma. The inhibitor is dissolved in 0.01N HCl (10 μl) and added to human plasma (75 μl) containing EDTA, and angiotensin-I antibody ([…]) in 3M-Tris.HCl buffer (pH 6.9).
Free and bound ligand are separated by the addition of dextran-coated charcoal, and the amount of bound radio-ligand determined in a gamma counter.

| IC50 [nM] | SMILES |
| --- | --- |
| 9.4 | CC(C)(C)OC(=O)N[C@@H](Cc1ccccc1)C(=O)N[C@@H](Cc1cnc[nH]1)C(=O)N[C@@H](CC1CCCCC1)[C@@H](O)CS(=O)(=O)CC(=O)NCCN1CCOCC1 |
| 73 | CC(C)CC(SC[C@H](O)[C@H](CC1CCCCC1)NC(=O)[C@H](Cc1c[nH]cn1)NC(=O)[C@H](Cc1ccccc1)NC(=O)OC(C)(C)C)C(=O)NCCN1CCOCC1 (mixture of isomers) [4-[2-[[(2RS)-2-[[(2R,3S)-3-(Boc-L-phenylalanyl-L-histidylamino)-4-cyclohexyl-2-hydroxy-1-butyl]thio]methylpentanoyl]-4-methylpentanoyl]amino]ethyl]morpholine] |
| 904 | CC(C)(C)OC(=O)N[C@@H](Cc1ccccc1)C(=O)N[C@@H](Cc1c[nH]cn1)C(=O)N[C@@H](CC1CCCCC1)[C@@H](O)CSCC(=O)O [2-[X-thio]acetic acid, 2-[[(2R,3S)-3-(Boc-L-phenylalanyl-L-histidylamino)-4-cyclohexyl-2-hydroxy-1-butyl]thio]acetic acid] |
| 29 | CC(C)(C)OC(=O)NC(Cc1ccccc1)C(=O)NC(Cc1cnc[nH]1)C(=O)NC(CC1CCCCC1)C(O)CSCC(=O)NC1CN2CCC1CC2 (stereo not shown) [3-[2-[X-thio]acetamido}quinuclidine] |
| 40 | CC(C)(C)OC(=O)N[C@@H](Cc1ccccc1)C(=O)N[C@@H](Cc1cnc[nH]1)C(=O)N[C@@H](CC1CCCCC1)[C@@H](O)CSCC(=O)NCCN1CCOCC1 [4-[2-[2-[X-thio]acetamido]ethyl]morpholine] |
| 7.2 | CC(C)(C)S(=O)(=O)C[C@@H](Cc1ccccc1)C(=O)N[C@@H](Cc1c[nH]cn1)C(=O)N[C@@H](CC1CCCCC1)[C@@H](O)CS(=O)(=O)CC(=O)NCCN1CCOCC1 [4-[2-[2-[[(2R,3S)3-[N^α -[(S)-2-[(t-Butylsulfonyl)-methyl]-3-phenylpropionyl]-L-histidylamino]-4-cyclohexyl-2-hydroxy-1-butyl]sulfonyl]-acetamido]ethyl]morpholine] |
| 20 | CN1CCN(C(=O)CS(=O)(=O)C[C@H](O)[C@H](CC2CCCCC2)NC(=O)[C@H](Cc2cnc[nH]2)NC(=O)[C@H](Cc2ccccc2)NC(=O)OC(C)(C)C)CC1 [4-[2-[X-sulfonyl]acetyl]-1-methylpiperazine] |
| 29 | CN1CCN(C(=O)CSC[C@H](O)[C@H](CC2CCCCC2)NC(=O)[C@H](Cc2cnc[nH]2)NC(=O)[C@H](Cc2ccccc2)NC(=O)OC(C)(C)C)CC1 [4-[2-[X-thio]acetyl]-1-methylpiperazine, 4-[2-[[(2R,3S)-3-(Boc-L-phenylalanyl-L-histidylamino)-4-cyclohexyl-2-hydroxy-1-butyl]thio]acetyl]-1-methylpiperazine] |
| 77 | CC(C)CC(C(=O)NCCN1CCOCC1)S(=O)(=O)C[C@H](O)[C@H](CC1CCCCC1)NC(=O)[C@H](Cc1c[nH]cn1)NC(=O)[C@H](Cc1ccccc1)NC(=O)OC(C)(C)C (stereo partly shown) [4-[2-[[2 ---- RS )-2 [X-sulfonyl]-4-methyl-pentanoyl]amino]ethyl]morpholine] |
| 88 | CC(C)CC(C(=O)NCCN1CCOCC1)[S+]([O-])C[C@H](O)[C@H](CC1CCCCC1)NC(=O)[C@H](Cc1cnc[nH]1)NC(=O)[C@H](Cc1ccccc1)NC(=O)OC(C)(C)C (stereo partly shown) [4-[2-[[(2 ---- RS )-2-[X-sulfinyl]-4-methyl-pentanoyl]amino]ethyl]morpholine] |
| 19 | CC(C)(C)OC(=O)N[C@@H](Cc1ccccc1)C(=O)N[C@@H](Cc1cnc[nH]1)C(=O)N[C@@H](CC1CCCCC1)[C@@H](O)C[S+]([O-])CC(=O)NCCN1CCOCC1 (stereo partly drawn) [4-[[(2R,3S)-3-(Boc-L-phenylalanyl-L-histidylamino)-4-cyclohexyl-2-hydroxy-1-butyl]-sulfinyl]acetyl]amino]ethyl]morpholine] |
| 161 | CNCCN(C)C(=O)CSC[C@H](O)[C@H](CC1CCCCC1)NC(=O)[C@H](Cc1c[nH]cn1)NC(=O)[C@H](Cc1ccccc1)NC(=O)OC(C)(C)C [N-[2-[[(2R,3S)-3-(Boc-L-phenylalanyl-L-histidylamino)-4-cyclohexyl-2-hydroxy-1-butyl]thio]acetyl]-N,N'-dimethylethylenediamine] |
| 58 | CCOC(=O)CSC[C@H](O)[C@H](CC1CCCCC1)NC(=O)[C@H](Cc1cnc[nH]1)NC(=O)[C@H](Cc1ccccc1)NC(=O)OC(C)(C)C [ethyl 2-[X-thio]acetate, ethyl 2-[[(2R,3S) 3-(Boc-L-phenylalanyl-L-histidylamino)-4-cyclohexyl-2-hydroxy-1-butyl]thio]acetate] |

| SMILES | IC50 [nM] |
| --- | --- |
| CC(C)(C)OC(=O)N[C@@H](Cc1ccccc1)C(=O)N[C@@H](Cc1c[nH]cn1)C(=O)N[C@@H](CC1CCCCC1)[C@@H](O)CS(=O)(=O)CC(=O)NC1CCN(Cc2ccccc2)CC1 [1-benzyl-4-[2-[X-sulfonyl]acetamido]piperidine] | 34 |
| CC(C)(C)OC(=O)N[C@@H](Cc1ccccc1)C(=O)N[C@@H](Cc1c[nH]cn1)C(=O)N[C@@H](CC1CCCCC1)[C@@H](O)CS(=O)(=O)CC(=O)NC1C[N+]2([O-])CCC1CC2 (stereo partly shown) [3-[2-[X-sulfonyl]acetamido]quinuclidine-N-oxide] | 4.2 |
| CC(C)(C)OC(=O)N[C@@H](Cc1ccccc1)C(=O)N[C@@H](Cc1c[nH]cn1)C(=O)N[C@@H](CC1CCCCC1)[C@@H](O)CSCC(=O)NCc1ccncc1 [4-[[2-[X-thio]acetamido]methyl]pyridine] | 92 |
